Data from patent US20200270309A1, “MALEIMIDE GROUP-MODIFIED ANGIOGENESIS INHIBITOR HM-1 AND USE THEREOF” (NANJING ANJI BIOLOGICAL TECHNOLOGY CO., LTD, priority 2017, published 2020).
Peptide text beside a SMILES is read from it. * marks the point of attachment. X74 = O=C1C=CC(=O)N1c1cccc(CCCCCCCCCCC(=O)*)c1; X59 = O=C1C=CC(=O)N1c1cccc(CCCCCCCCC(=O)*)c1

Columns and labels:
[1] = tested on: collagen-induced arthritis; assay: Mouse collagen-induced arthritis (CIA) animal model; assay type: in vivo; conditions: DBA/1 mice CIA model, dose 4.0 mg/kg, subcutaneous from day 30, n=10; for Clinical score: highest score 16
HUVECs = assay: Transwell migration inhibition on HUVECs; assay type: cell-based, human; conditions: for Inhibition rate (%): HUVEC migration vs blank control; for Cell migration number (Mean ± SD): HUVECs, transwell, 24 h
[2] = tested on: carrageenan-induced toe swelling; assay: Carrageenan-induced toe swelling in rats; assay type: in vivo; conditions: SD rats; for Swelling degree 1 h: 1 h after carrageenan; for Swelling degree 3 h: 3 h after carrageenan; for Swelling degree 5 h: 5 h after carrageenan; for Swelling degree 7 h: 7 h after carrageenan
Procedure, shortened: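 Rats dosed by injection once daily for 3 d, controls given equal-volume saline. Right hind paw volume measured by water displacement to a marked joint line; swelling degree (mL) is paw volume after carrageenan inflammation minus volume before.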

adjuvant arthritis = assay: Rat adjuvant arthritis (AA) animal model; assay type: in vivo, SD rats; conditions: 4.0 mg/kg; for Clinical score: intravenous in the tail once every five days from day 10, four paws scored 0-4, max 16, mean±SD; for Joint swelling degree / Left and right paw swelling degree: intravenous in the tail once every five days from day 10, mean±SD
[3] = tested on: choroidal neovascularization; assay: Choroidal neovascularization in rats (laser photocoagulation, FFA); assay type: in vivo; conditions: BN rats
Procedure, shortened: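 Male BN rats aged 6-8 weeks were given 8 krypton-laser spots around the optic disc (647.1 nm, 350 mW, 50 μm, 0.05 s). Once the model was confirmed, groups of 5 got daily intravitreal compound at 0.05 μM or saline for 1 week. FFA followed at 3, 7, 14 and 28 days after dosing.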

[4] = Half-lives and pharmacokinetic parameters of polypeptides vs HM-1; conditions: in vivo; for half-life: T1/2β (half-life)
splenic lymphocytes = assay: Proliferation of splenic lymphocytes in mice (ConA, MTT); assay type: cell-based; conditions: ConA-stimulated mouse splenic lymphocytes, 48 h
Procedure, shortened: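 Mouse splenocytes (5×10^6 cells/mL, RPMI 1640 with 10% calf serum, red cells lysed) stimulated with ConA plus varying polypeptide concentrations, with blank, ConA-only and Dex groups, 48 h at 37° C. MTT added for 4 h, formazan dissolved in DMSO, OD read at 570 nm; five replicates.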

[5] = day 3 after administration, total light spot number was 297, 0.05 μM in the vitreous chamber once a day for 1 week
[6] = day 7 after administration, total light spot number was 186, 0.05 μM in the vitreous chamber once a day for 1 week
[7] = day 14 after administration, total light spot number was 137, 0.05 μM in the vitreous chamber once a day for 1 week
[8] = day 28 after administration, total light spot number was 69, 0.05 μM in the vitreous chamber once a day for 1 week

C[C@H](NC(=O)CNC(=O)[C@H](CCCNC(=N)N)NC(=O)CCCCCCCCCCc1cccc(N2C(=O)C=CC2=O)c1)C(=O)N[C@@H](CC(=O)O)C(=O)N[C@@H](CCCNC(=N)N)C(=O)N[C@@H](C)C(=O)NCC(=O)NCC(=O)NCC(=O)NCC(=O)N[C@@H](CCCNC(=N)N)C(=O)NCC(=O)N[C@@H](CC(=O)O)C(=O)O [X34] (X74-RGADRAGGGGRGD-OH)
Joint swelling degree (mm) [1]: 0.84 ± 0.13 mm
Left and right paw swelling degree (mm) [1]: 0.72 ± 0.15 mm
Clinical score [1]: 8.8 ± 1.34
Inhibition rate (%) (HUVECs; dose 0.05 μM): 47.95%
Inhibition rate (%) (HUVECs; dose 0.1 μM): 52.08%
Inhibition rate (%) (HUVECs; dose 0.2 μM): 53.69%
Cell migration number (Mean ± SD) (HUVECs; dose 0.05 μM): 557.95 ± 42.69
Cell migration number (Mean ± SD) (HUVECs; dose 0.1 μM): 513.64 ± 43.27
Cell migration number (Mean ± SD) (HUVECs; dose 0.2 μM): 496.39 ± 56.37
Swelling degree 1 h ([2]; 2.0 mg/kg once a day for 3 d): 0.26 ± 0.18 mg
Swelling degree 3 h ([2]; 2.0 mg/kg once a day for 3 d): 0.38 ± 0.13 mg
Swelling degree 5 h ([2]; 2.0 mg/kg once a day for 3 d): 0.39 ± 0.11 mg
Swelling degree 7 h ([2]; 2.0 mg/kg once a day for 3 d): 0.35 ± 0.14 mg
Swelling degree 1 h ([2]; 4.0 mg/kg once a day for 3 d): 0.22 ± 0.18 mg
Swelling degree 3 h ([2]; 4.0 mg/kg once a day for 3 d): 0.38 ± 0.15 mg
Swelling degree 5 h ([2]; 4.0 mg/kg once a day for 3 d): 0.36 ± 0.16 mg
Swelling degree 7 h ([2]; 4.0 mg/kg once a day for 3 d): 0.34 ± 0.13 mg
Clinical score (adjuvant arthritis): 5.66 ± 1.09
Joint swelling degree (adjuvant arthritis): 0.83 ± 0.17 mm
Left and right paw swelling degree (adjuvant arthritis): 3.84 ± 0.88 mm
CNV Incidence (%) [3, 5]: 52.19%
Leakage Light spot number [3, 5]: 155
CNV Incidence (%) [3, 6]: 47.31%
Leakage Light spot number [3, 6]: 88
CNV Incidence (%) [3, 7]: 45.99%
Leakage Light spot number [3, 7]: 63
CNV Incidence (%) [3, 8]: 42.03%
Leakage Light spot number [3, 8]: 29
AUC(0-inf) [4]: 27700 ± 8150 ng·h/mL
MRT inf [4]: 49.6 ± 10.2 h
clearance [4]: 0.602 mL/min/kg
half-life [4]: 34.35 ± 0.26 h
A570 nm/A630 nm (splenic lymphocytes; polypeptide dose 0.05 μM): 0.5469 ± 0.0655
Inhibition rate (%) (splenic lymphocytes; polypeptide dose 0.05 μM): 19.03%
A570 nm/A630 nm (splenic lymphocytes; polypeptide dose 0.1 μM): 0.4573 ± 0.1104
Inhibition rate (%) (splenic lymphocytes; polypeptide dose 0.1 μM): 32.29%
A570 nm/A630 nm (splenic lymphocytes; polypeptide dose 0.2 μM): 0.4431 ± 0.1192
Inhibition rate (%) (splenic lymphocytes; polypeptide dose 0.2 μM): 34.39%

C[C@H](NC(=O)CNC(=O)[C@H](CCCNC(=N)N)NC(=O)CCCCCCCCc1cccc(N2C(=O)C=CC2=O)c1)C(=O)N[C@@H](CC(=O)O)C(=O)N[C@@H](CCCNC(=N)N)C(=O)N[C@@H](C)C(=O)NCC(=O)NCC(=O)NCC(=O)NCC(=O)N[C@@H](CCCNC(=N)N)C(=O)NCC(=O)N[C@@H](CC(=O)O)C(=O)O [X32] (X59-RGADRAGGGGRGD-OH)
Joint swelling degree (mm) [1]: 0.81 ± 0.16 mm
Left and right paw swelling degree (mm) [1]: 0.81 ± 0.13 mm
Clinical score [1]: 9.06 ± 1.26
Inhibition rate (%) (HUVECs; dose 0.05 μM): 41.92%
Inhibition rate (%) (HUVECs; dose 0.1 μM): 47.67%
Inhibition rate (%) (HUVECs; dose 0.2 μM): 56.61%
Cell migration number (Mean ± SD) (HUVECs; dose 0.05 μM): 622.57 ± 49.41
Cell migration number (Mean ± SD) (HUVECs; dose 0.1 μM): 560.86 ± 50.91
Cell migration number (Mean ± SD) (HUVECs; dose 0.2 μM): 465.06 ± 48.23
Swelling degree 1 h ([2]; 2.0 mg/kg once a day for 3 d): 0.25 ± 0.18 mg
Swelling degree 3 h ([2]; 2.0 mg/kg once a day for 3 d): 0.35 ± 0.13 mg
Swelling degree 5 h ([2]; 2.0 mg/kg once a day for 3 d): 0.36 ± 0.12 mg
Swelling degree 7 h ([2]; 2.0 mg/kg once a day for 3 d): 0.31 ± 0.17 mg
Swelling degree 1 h ([2]; 4.0 mg/kg once a day for 3 d): 0.24 ± 0.14 mg
Swelling degree 3 h ([2]; 4.0 mg/kg once a day for 3 d): 0.33 ± 0.17 mg
Swelling degree 5 h ([2]; 4.0 mg/kg once a day for 3 d): 0.41 ± 0.15 mg
Swelling degree 7 h ([2]; 4.0 mg/kg once a day for 3 d): 0.35 ± 0.12 mg
Clinical score (adjuvant arthritis): 5.81 ± 1.14
Joint swelling degree (adjuvant arthritis): 0.81 ± 0.18 mm
Left and right paw swelling degree (adjuvant arthritis): 3.91 ± 0.64 mm
CNV Incidence (%) [3, 5]: 54.21%
Leakage Light spot number [3, 5]: 161
CNV Incidence (%) [3, 6]: 46.24%
Leakage Light spot number [3, 6]: 86
CNV Incidence (%) [3, 7]: 43.07%
Leakage Light spot number [3, 7]: 59
CNV Incidence (%) [3, 8]: 42.03%
Leakage Light spot number [3, 8]: 29
AUC(0-inf) [4]: 30900 ± 7750 ng·h/mL
MRT inf [4]: 55.3 ± 11.8 h
clearance [4]: 0.54 mL/min/kg
half-life [4]: 38.33 ± 0.31 h
A570 nm/A630 nm (splenic lymphocytes; polypeptide dose 0.05 μM): 0.6117 ± 0.0672
Inhibition rate (%) (splenic lymphocytes; polypeptide dose 0.05 μM): 9.43%
A570 nm/A630 nm (splenic lymphocytes; polypeptide dose 0.1 μM): 0.5954 ± 0.0678
Inhibition rate (%) (splenic lymphocytes; polypeptide dose 0.1 μM): 11.84%
A570 nm/A630 nm (splenic lymphocytes; polypeptide dose 0.2 μM): 0.5428 ± 0.0408
Inhibition rate (%) (splenic lymphocytes; polypeptide dose 0.2 μM): 19.63%
